# Assay results from the kinase profiling compilation of Christmann-Franck et al. (2016).
# Columns and labels:
# Test in all cases: KINOMEscan competition binding
# Settings in all cases: compound 10.0 µM
# SIK2 (human) = SIK2 (human) (UniProt Q9H0K1)
# PRKX (human) = PRKX (human) (UniProt P51817)
# [1] = molecular target: JAK3 JH1 catalytic (human) (UniProt P52333)
# PRKACB (human) = PRKACB (human) (UniProt P22694)
# CDC42BPA (human) = CDC42BPA (human) (UniProt Q5VT25)
# MYO3A (human) = MYO3A (human) (UniProt Q8NEV4)
# MARK4 (human) = MARK4 (human) (UniProt Q96L34)
# CAMKK1 (human) = CAMKK1 (human) (UniProt Q8N5S9)
# CDK16 (human) = CDK16 (human) (UniProt Q00536)
# AXL (human) = AXL (human) (UniProt P30530)
# NEK6 (human) = NEK6 (human) (UniProt Q9HC98)
# LATS2 (human) = LATS2 (human) (UniProt Q9NRM7)
# MARK2 (human) = MARK2 (human) (UniProt Q7KZI7)
# SYK (human) = SYK (human) (UniProt P43405)
# SLK (human) = SLK (human) (UniProt Q9H2G2)
# TGFBR2 (human) = TGFBR2 (human) (UniProt P37173)
# CLK3 (human) = CLK3 (human) (UniProt P49761)
# SRPK2 (human) = SRPK2 (human) (UniProt P78362)
# STK38L (human) = STK38L (human) (UniProt Q9Y2H1)
# STK25 (human) = STK25 (human) (UniProt O00506)
# MAP4K2 (human) = MAP4K2 (human) (UniProt Q12851)
# [2] = molecular target: JAK1 JH2 pseudokinase (human) (UniProt P23458)
# MST1R (human) = MST1R (human) (UniProt Q04912)
# ROS1 (human) = ROS1 (human) (UniProt P08922)
# CAMK2D (human) = CAMK2D (human) (UniProt Q13557)
# NEK9 (human) = NEK9 (human) (UniProt Q8TD19)
# MAPK3 (human) = MAPK3 (human) (UniProt P27361)
# STK16 (human) = STK16 (human) (UniProt O75716)
# CLK1 (human) = CLK1 (human) (UniProt P49759)
# IKBKE (human) = IKBKE (human) (UniProt Q14164)
# CSNK1A1L (human) = CSNK1A1L (human) (UniProt Q8N752)
# EPHA3 (human) = EPHA3 (human) (UniProt P29320)
# RPS6KA1 KD1 (human) = RPS6KA1 KD1 (human) (UniProt Q15418)
# INSRR (human) = INSRR (human) (UniProt P14616)
# PRKAA1 (human) = PRKAA1 (human) (UniProt Q13131)
# ALK (human) = ALK (human) (UniProt Q9UM73)
# GSK3A (human) = GSK3A (human) (UniProt P49840)
# Chain of IKBKE (human) (Q14164 whole entry, looked up): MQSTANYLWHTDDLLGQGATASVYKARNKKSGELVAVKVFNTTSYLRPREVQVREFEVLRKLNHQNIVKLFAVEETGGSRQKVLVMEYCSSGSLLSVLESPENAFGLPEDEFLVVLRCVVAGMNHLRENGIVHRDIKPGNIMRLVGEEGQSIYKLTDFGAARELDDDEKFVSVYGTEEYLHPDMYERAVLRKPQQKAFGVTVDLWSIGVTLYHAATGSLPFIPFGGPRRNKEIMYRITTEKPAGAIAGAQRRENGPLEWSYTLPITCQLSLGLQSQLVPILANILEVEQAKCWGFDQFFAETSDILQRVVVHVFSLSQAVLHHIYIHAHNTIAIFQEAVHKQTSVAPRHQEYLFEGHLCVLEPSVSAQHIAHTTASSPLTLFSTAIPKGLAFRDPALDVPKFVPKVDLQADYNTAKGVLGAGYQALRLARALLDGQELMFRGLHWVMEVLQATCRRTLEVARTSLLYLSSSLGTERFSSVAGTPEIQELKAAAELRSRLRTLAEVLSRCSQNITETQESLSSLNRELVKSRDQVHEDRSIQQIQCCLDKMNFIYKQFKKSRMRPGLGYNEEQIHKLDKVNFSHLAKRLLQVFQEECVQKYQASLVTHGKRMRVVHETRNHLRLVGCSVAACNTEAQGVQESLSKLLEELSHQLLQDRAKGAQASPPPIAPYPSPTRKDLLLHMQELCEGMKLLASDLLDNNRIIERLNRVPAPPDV
# Chain of CLK3 (human) (P49761 whole entry, looked up): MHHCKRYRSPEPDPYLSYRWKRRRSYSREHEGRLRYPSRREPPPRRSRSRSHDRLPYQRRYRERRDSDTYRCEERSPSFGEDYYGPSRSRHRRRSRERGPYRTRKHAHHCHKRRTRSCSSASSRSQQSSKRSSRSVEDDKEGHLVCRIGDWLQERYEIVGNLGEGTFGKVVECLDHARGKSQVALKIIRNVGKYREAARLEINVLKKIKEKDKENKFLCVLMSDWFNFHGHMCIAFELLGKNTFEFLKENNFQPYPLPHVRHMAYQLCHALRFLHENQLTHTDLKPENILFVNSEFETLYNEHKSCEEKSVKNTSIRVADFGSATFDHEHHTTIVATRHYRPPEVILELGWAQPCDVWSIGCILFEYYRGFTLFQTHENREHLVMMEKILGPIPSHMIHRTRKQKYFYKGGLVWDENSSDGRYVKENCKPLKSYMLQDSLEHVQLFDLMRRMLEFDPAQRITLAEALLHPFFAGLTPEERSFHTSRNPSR
# Chain of STK38L (human) (Q9Y2H1 whole entry, looked up): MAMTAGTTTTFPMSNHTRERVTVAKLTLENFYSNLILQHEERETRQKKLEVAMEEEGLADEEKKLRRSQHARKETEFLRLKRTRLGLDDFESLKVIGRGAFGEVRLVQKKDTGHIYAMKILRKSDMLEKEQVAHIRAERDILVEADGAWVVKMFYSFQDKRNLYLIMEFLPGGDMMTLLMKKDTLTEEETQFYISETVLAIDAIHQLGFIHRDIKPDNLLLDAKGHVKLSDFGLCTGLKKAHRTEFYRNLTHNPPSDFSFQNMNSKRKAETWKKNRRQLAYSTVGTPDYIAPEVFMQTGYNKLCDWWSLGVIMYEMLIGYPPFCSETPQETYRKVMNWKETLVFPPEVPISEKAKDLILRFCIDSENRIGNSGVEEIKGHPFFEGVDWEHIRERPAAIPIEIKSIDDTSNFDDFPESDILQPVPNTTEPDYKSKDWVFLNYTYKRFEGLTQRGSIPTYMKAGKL
# Chain of MST1R (human) (Q04912 whole entry, looked up): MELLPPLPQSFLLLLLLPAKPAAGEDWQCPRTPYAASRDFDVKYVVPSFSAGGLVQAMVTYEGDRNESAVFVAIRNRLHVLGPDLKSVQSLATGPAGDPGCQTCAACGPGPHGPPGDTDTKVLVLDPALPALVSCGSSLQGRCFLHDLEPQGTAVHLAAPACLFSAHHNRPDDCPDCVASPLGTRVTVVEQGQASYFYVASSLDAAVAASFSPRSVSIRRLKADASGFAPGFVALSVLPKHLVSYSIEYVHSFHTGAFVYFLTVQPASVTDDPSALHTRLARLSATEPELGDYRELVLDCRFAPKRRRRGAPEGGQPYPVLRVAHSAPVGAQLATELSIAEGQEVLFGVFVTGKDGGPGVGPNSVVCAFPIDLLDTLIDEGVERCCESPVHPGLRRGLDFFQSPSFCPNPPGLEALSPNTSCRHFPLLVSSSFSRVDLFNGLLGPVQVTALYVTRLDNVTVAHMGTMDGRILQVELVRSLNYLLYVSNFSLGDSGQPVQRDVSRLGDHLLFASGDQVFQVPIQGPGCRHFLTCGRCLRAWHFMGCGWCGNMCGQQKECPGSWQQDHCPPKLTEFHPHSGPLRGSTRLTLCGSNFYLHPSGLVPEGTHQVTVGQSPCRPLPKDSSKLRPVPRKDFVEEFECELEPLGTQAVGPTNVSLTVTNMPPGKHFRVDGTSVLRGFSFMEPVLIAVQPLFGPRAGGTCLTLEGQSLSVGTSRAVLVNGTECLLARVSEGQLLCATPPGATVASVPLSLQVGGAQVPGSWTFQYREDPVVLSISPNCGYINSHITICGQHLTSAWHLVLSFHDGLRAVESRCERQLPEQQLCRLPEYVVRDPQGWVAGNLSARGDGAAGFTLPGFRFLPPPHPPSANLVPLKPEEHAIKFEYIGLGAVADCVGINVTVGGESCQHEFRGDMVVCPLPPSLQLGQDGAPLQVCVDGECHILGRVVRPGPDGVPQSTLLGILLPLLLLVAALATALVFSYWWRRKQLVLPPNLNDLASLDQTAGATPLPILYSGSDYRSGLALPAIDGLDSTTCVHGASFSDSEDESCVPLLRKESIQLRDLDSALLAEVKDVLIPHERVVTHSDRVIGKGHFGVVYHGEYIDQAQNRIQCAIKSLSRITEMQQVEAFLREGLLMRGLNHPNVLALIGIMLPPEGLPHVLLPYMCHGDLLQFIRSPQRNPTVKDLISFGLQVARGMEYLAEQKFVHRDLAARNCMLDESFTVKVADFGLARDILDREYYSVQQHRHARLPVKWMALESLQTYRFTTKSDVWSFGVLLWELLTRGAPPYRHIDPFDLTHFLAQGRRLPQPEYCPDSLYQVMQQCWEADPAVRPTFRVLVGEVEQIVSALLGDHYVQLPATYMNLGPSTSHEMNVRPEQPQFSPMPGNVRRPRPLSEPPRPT
# Chain of JAK1 JH2 pseudokinase (human) (P23458 whole entry, looked up): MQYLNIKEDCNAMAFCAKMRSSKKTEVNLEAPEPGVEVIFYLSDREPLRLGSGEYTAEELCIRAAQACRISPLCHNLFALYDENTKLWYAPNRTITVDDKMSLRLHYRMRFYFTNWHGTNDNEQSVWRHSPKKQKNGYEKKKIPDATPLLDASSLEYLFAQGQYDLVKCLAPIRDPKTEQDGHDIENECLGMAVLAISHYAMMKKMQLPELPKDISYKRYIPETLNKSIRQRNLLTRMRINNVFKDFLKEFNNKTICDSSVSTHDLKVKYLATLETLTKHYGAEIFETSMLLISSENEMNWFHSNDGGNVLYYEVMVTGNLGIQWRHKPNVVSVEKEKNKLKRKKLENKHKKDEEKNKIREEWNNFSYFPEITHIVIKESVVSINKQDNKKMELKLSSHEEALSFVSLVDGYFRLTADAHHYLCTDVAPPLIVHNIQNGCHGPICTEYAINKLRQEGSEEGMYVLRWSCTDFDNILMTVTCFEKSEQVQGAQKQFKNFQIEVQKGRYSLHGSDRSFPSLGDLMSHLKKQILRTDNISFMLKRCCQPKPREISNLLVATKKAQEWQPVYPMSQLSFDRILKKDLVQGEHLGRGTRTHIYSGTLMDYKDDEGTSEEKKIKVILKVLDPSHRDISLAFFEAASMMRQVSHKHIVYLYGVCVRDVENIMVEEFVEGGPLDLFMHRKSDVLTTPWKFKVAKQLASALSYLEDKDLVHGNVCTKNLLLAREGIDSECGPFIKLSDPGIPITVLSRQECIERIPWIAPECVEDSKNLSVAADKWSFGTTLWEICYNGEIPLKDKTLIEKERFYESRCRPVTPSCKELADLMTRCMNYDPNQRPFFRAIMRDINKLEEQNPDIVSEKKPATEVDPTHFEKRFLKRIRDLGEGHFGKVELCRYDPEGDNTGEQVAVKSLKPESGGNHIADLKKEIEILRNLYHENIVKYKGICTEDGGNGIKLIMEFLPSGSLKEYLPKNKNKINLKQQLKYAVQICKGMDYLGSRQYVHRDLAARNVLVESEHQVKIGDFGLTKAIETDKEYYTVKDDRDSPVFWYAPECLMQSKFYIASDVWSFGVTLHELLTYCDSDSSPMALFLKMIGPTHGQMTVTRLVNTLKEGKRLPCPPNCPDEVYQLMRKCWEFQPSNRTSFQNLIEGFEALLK
# Chain of MAP4K2 (human) (Q12851 whole entry, looked up): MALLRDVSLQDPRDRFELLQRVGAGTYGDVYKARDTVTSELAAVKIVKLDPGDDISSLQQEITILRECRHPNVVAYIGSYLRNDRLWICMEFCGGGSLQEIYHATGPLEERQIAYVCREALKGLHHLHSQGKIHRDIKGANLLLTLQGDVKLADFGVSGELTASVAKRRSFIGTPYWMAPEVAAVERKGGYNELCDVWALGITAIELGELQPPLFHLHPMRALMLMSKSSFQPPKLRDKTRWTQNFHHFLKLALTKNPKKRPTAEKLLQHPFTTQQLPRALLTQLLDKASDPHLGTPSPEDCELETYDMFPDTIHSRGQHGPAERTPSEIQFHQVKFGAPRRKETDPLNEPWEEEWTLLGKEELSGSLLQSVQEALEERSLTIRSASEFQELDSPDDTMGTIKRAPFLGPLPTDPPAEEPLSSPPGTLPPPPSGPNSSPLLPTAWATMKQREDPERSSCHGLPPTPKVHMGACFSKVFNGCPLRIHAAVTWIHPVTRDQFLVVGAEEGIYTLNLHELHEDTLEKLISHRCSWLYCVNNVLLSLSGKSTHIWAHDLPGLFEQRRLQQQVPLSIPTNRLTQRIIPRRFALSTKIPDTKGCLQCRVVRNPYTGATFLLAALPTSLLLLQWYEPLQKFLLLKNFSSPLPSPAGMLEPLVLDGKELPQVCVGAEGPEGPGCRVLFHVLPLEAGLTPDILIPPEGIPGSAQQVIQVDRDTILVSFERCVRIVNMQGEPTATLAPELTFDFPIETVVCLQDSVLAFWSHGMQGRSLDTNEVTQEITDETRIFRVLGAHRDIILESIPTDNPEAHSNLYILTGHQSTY
structure (smiles),measurement,setting,value
COc1cc(N2CCN(C)CC2)ccc1Nc1nc(N)c(C(=O)c2c(Cl)cccc2Cl)s1,"kinase still bound, per cent of control",SIK2 (human),100%
same,"kinase still bound, per cent of control",PRKX (human),93%
same,"kinase still bound, per cent of control",[1],100%
same,"kinase still bound, per cent of control",PRKACB (human),100%
same,"kinase still bound, per cent of control",CDC42BPA (human),100%
same,"kinase still bound, per cent of control",MYO3A (human),85%
same,"kinase still bound, per cent of control",MARK4 (human),82%
same,"kinase still bound, per cent of control",CAMKK1 (human),6.3%
same,"kinase still bound, per cent of control",CDK16 (human),62%
same,"kinase still bound, per cent of control",AXL (human),100%
same,"kinase still bound, per cent of control",NEK6 (human),100%
same,"kinase still bound, per cent of control",LATS2 (human),100%
same,"kinase still bound, per cent of control",MARK2 (human),90%
same,"kinase still bound, per cent of control",SYK (human),59%
same,"kinase still bound, per cent of control",SLK (human),1.6%
same,"kinase still bound, per cent of control",TGFBR2 (human),92%
same,"kinase still bound, per cent of control",CLK3 (human),2%
same,"kinase still bound, per cent of control",SRPK2 (human),100%
same,"kinase still bound, per cent of control",STK38L (human),84%
same,"kinase still bound, per cent of control",STK25 (human),66%
same,"kinase still bound, per cent of control",MAP4K2 (human),77%
same,"kinase still bound, per cent of control",[2],100%
same,"kinase still bound, per cent of control",MST1R (human),96%
same,"kinase still bound, per cent of control",ROS1 (human),11%
same,"kinase still bound, per cent of control",CAMK2D (human),23%
same,"kinase still bound, per cent of control",NEK9 (human),100%
same,"kinase still bound, per cent of control",MAPK3 (human),100%
same,"kinase still bound, per cent of control",STK16 (human),90%
same,"kinase still bound, per cent of control",CLK1 (human),22%
same,"kinase still bound, per cent of control",IKBKE (human),87%
same,"kinase still bound, per cent of control",CSNK1A1L (human),100%
same,"kinase still bound, per cent of control",EPHA3 (human),82%
same,"kinase still bound, per cent of control",RPS6KA1 KD1 (human),100%
same,"kinase still bound, per cent of control",INSRR (human),100%
same,"kinase still bound, per cent of control",PRKAA1 (human),81%
same,"kinase still bound, per cent of control",ALK (human),0.35%
same,"kinase still bound, per cent of control",GSK3A (human),67%
